Measurements: US20240209001A1, “HETEROCYCLIC DERIVATIVES AS JANUS KINASE INHIBITORS” (CHIESI FARMACEUTICI S.P. A., priority 2021, published 2024)

Assays:
[1] = test system: IL-2 induced phosphorylation of STAT5 (JAK1/JAK3 activity) in human peripheral blood mononuclear cells (PBMCs); assay: Cell based assay PBMC (IL-2 stimulated pSTAT5); details: 0.5 h, rh IL-2, 30 min incubation, pSTAT5 ELISA, read-out: Cell Based assay PBMC (IL-2 stimulated pSTAT5), data displayed as pIC50 (converted)
Protocol: In addition to enzymatic potency, the effects of the inhibitors against JAK1/JAK3 activity in a cellular assay was characterized against IL-2 induced phosphorylation of STAT5 level in human peripheral blood mononuclear cells (PBMCs).
PBMC have been isolated from human healthy volunteers. Cells were seeded in wells and treated with compounds and rh IL-2. After 30 min incubation cells were lysed and pSTAT5 determined by PathScan phospho-stat5 (Tyr694) ELISA (Cell signaling). Inhibitors were tested at 11 consecutive 5-fold dilutions starting from 30 μM (30 μM-[…]) in duplicate. Calculation of IC50 data, curves and QC analysis were made using Excel tools and GraphPadPrism software. QC criteria parameters: Z′≥0.35, Hill Slope range 0.5 to 5, S:B>2.

[2] = molecular target: T1, JAK 1 (Homo sapiens (Human), UniProt P23458); assay: Biochemical potency JAK1, TR-FRET LANCE Ultra kinase assay (examples 1a-10a); details: ATP corresponding to Km
T1 sequence (P23458 whole entry): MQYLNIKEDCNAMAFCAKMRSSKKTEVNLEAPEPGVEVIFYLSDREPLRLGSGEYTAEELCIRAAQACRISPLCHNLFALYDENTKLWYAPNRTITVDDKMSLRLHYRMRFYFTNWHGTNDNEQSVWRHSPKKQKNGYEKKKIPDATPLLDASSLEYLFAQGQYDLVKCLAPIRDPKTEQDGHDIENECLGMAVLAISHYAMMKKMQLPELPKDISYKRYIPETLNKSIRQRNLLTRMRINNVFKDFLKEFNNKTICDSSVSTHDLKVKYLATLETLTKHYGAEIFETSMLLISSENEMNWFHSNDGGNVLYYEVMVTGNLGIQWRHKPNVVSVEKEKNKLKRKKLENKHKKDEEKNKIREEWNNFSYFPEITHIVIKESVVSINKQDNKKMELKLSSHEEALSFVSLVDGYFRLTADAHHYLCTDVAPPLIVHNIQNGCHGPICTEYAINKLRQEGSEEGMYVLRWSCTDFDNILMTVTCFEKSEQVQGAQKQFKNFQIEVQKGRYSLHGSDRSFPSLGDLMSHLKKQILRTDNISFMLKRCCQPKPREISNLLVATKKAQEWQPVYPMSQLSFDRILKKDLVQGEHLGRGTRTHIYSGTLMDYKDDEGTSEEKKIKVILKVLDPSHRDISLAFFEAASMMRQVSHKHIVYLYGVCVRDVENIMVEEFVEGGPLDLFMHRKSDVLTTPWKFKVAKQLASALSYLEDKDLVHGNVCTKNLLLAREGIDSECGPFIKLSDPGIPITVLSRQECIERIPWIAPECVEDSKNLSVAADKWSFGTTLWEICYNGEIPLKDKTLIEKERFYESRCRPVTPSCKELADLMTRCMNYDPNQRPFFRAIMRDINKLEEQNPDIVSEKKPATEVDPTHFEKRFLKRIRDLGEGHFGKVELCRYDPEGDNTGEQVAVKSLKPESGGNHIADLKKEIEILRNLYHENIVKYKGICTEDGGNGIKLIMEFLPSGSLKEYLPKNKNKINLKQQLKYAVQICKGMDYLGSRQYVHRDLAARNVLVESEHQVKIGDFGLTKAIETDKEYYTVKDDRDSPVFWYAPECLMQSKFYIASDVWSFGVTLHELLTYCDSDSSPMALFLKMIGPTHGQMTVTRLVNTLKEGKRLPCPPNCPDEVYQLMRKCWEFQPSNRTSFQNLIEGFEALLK
Description: Pharmacological Activity of the Compounds of the Invention (1a-10a).
The objective of this study was to assess the activity of novel JAK inhibitors measuring the capability of compounds to inhibit JAK1 kinase activity in a biochemical time-resolved fluorescence resonance energy transfer (TR-FRET) LANCE assay. In LANCE Ultra kinase assay in the presence of JAK1 kinase and ATP (corresponding to Km), the ULight peptide substrate (LANCE Ulight-JAK-1 (Tyr1023) Peptide, Perkin Elmer, TRF0121) was phosphorylated. It was then captured by a Eu-anti-phospho-substrate antibody (LANCE Eu-W1024 Anti-phosphotyrosine (PT66), Perkin Elmer, AD0069), which brought the Eu-chelate donor and ULight acceptor dyes into close proximity. Upon excitation at 320 nm, the Eu-chelate transfers its energy to the ULight dye, resulting in a fluorescent light emission at 665 nm. Inhibitors were tested at 11 consecutive 5-fold dilutions starting from 30 μM (30 μM-[…]) in duplicate. Calculation of IC50 data, curves and QC analysis were made using Excel tools and GraphPadPrism software. QC criteria parameters: Z′≥0.5, Hill Slope range 0.5 to 5, S:B>2.

[3] = molecular target: T1, JAK 1; assay: Biochemical potency on JAK1, TR-FRET LANCE Ultra kinase assay (compounds 1-92); details: ATP at Km, read-out: JAK1 inhibitory activity (pIC50 class) (converted)
In short: (§1)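 TR-FRET (LANCE Ultra) phosphorylation of ULight-JAK-1 peptide, ATP at Km: JAK1/JAK2/JAK3/TYK2 peptide 30/50/20/10 nM, ATP 20/0.7/0.2/12 μM, enzyme 0.15/0.083/0.025/0.144 ng/μL. 11-point 5-fold series from 20 μM; 1.5 h RT, EDTA stop, Eu-anti-pTyr detection 1 h; IC50 by variable-slope fit.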

[4] = molecular target: JAK 2 (Homo sapiens (Human), UniProt O60674); assay: Biochemical potency on JAK2, TR-FRET LANCE Ultra kinase assay (compounds 1-92); details: ATP at Km, read-out: JAK2 inhibitory activity (pIC50 class) (converted)
Chain of JAK 2 (O60674 whole entry): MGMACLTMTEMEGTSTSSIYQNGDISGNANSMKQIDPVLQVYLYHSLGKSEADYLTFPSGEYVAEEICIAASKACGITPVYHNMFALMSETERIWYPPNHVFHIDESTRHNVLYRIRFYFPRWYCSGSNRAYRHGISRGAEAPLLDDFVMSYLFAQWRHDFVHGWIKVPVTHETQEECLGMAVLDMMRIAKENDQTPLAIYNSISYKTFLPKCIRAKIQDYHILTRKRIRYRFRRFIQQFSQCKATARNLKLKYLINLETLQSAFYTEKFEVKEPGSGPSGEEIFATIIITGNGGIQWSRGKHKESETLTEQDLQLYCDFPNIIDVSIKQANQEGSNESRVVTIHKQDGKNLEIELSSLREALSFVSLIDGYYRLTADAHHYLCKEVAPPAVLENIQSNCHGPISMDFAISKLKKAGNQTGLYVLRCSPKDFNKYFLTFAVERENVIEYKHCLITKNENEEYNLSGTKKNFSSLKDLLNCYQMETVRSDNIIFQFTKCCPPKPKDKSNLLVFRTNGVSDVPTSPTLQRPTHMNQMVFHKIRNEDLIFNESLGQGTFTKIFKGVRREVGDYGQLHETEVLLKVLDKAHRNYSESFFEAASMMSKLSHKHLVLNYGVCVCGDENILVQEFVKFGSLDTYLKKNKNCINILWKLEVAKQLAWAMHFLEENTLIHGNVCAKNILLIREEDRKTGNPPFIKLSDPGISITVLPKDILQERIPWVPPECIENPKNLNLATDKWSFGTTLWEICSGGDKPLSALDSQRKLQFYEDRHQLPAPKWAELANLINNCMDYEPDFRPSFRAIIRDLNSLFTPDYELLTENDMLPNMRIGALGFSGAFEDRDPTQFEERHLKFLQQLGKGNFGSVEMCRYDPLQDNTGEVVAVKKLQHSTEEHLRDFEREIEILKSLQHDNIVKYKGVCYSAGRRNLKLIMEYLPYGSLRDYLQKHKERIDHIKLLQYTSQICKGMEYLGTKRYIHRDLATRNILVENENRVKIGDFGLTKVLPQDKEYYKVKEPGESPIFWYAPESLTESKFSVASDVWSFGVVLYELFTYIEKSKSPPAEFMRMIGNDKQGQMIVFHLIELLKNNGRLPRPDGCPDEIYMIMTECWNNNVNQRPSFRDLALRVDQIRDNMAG
In short: as §1

[5] = molecular target: JAK 3 (Homo sapiens (Human), UniProt P52333); assay: Biochemical potency on JAK3, TR-FRET LANCE Ultra kinase assay (compounds 1-92); details: ATP at Km, read-out: JAK3 inhibitory activity (pIC50 class) (converted)
Chain of JAK 3 (P52333 whole entry): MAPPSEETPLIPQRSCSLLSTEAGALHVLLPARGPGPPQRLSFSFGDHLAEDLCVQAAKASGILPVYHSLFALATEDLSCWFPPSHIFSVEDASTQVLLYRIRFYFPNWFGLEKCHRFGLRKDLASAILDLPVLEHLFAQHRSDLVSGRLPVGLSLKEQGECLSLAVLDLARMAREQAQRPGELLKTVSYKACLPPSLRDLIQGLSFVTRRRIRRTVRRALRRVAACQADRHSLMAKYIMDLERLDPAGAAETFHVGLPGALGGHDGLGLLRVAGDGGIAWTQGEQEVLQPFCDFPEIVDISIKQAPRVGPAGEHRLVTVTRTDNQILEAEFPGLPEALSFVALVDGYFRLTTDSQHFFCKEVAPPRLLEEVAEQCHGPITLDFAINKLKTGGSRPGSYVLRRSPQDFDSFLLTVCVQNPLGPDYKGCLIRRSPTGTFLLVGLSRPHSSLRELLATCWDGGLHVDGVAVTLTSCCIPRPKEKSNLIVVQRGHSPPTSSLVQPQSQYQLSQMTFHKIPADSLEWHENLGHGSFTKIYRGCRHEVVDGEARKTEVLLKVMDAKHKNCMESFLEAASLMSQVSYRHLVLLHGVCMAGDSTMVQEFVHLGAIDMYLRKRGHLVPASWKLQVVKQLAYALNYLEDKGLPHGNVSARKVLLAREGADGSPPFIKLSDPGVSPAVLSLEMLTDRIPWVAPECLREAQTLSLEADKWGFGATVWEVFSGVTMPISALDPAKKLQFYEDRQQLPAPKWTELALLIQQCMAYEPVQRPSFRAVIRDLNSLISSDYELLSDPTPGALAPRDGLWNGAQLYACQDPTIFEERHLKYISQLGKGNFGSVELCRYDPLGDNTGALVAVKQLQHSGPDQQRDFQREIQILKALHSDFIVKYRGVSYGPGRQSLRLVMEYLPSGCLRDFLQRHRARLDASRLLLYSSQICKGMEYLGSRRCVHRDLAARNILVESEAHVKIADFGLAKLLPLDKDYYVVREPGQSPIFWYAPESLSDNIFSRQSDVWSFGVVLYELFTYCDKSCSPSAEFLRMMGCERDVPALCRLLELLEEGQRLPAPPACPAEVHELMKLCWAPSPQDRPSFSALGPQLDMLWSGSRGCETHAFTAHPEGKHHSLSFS
In short: as §1

[6] = molecular target: TYK2 (Homo sapiens (Human), UniProt P29597); assay: Biochemical potency on Tyk2, TR-FRET LANCE Ultra kinase assay (compounds 1-92); details: ATP at Km, read-out: Tyk2 inhibitory activity (pIC50 class) (converted)
Chain of TYK2 (P29597 whole entry): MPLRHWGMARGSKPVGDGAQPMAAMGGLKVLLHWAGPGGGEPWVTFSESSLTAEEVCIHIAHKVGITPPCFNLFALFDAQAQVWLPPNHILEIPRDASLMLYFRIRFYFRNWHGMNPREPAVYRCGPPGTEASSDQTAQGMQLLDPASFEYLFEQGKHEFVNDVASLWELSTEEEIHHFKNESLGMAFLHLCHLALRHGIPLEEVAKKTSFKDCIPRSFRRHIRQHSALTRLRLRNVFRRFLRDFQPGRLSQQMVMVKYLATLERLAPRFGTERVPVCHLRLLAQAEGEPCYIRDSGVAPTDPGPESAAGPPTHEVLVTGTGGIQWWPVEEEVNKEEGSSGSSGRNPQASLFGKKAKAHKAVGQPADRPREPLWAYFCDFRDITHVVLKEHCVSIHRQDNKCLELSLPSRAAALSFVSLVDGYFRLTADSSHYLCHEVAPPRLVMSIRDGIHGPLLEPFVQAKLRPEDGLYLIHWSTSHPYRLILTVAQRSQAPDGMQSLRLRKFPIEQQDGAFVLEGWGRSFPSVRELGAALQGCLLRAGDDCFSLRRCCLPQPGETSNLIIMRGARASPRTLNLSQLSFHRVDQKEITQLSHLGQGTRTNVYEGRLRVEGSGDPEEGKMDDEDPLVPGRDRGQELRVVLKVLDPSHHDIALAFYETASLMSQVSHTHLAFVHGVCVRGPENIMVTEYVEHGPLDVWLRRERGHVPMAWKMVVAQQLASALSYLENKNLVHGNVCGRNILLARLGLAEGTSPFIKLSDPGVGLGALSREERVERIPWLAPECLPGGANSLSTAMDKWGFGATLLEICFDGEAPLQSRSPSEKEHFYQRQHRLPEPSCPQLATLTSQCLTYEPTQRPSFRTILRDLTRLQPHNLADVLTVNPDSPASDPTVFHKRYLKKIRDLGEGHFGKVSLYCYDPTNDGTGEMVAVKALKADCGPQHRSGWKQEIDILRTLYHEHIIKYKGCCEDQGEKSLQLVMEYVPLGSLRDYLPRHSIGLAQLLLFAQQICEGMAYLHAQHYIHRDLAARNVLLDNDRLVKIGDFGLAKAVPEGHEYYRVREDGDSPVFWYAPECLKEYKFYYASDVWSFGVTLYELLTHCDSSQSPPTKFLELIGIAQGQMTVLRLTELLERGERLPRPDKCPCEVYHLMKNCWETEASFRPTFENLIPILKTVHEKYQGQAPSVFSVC
In short: as §1

OCc1nn(-c2cc(Cl)ccc2OC(F)F)c2cc(-c3cnn4cccnc34)cnc12 [Example 1a, (1-(5-chloro-2-(difluoromethoxy)phenyl)-6-(pyrazolo[1,5-a]pyrimidin-3-yl)-1H-pyrazolo[4,3-b]pyridin-3-yl)methanol]
IC50 [1]: 50.1 nM | Biochemical Potency JAK 1 (pIC50) [2]: 8.1

CN(C)C(=O)Cn1nc(-c2cc(Cl)ccc2OC(F)F)c2cc(-c3cnn4cccnc34)cnc21 [Example 2a, 2-(3-(5-chloro-2-(difluoromethoxy)phenyl)-5-(pyrazolo[1,5-a]pyrimidin-3-yl)-1H-pyrazolo[3,4-b]pyridin-1-yl)-N,N-dimethylacetamide]
IC50 [1]: 631 nM | Biochemical Potency JAK 1 (pIC50) [2]: 7.3

COC(=O)c1nn(-c2cc(Cl)ccc2OC(F)F)c2cc(-c3cnn4cccnc34)cnc12 [Example 3a, methyl 1-(5-chloro-2-(difluoromethoxy)phenyl)-6-(pyrazolo[1,5-a]pyrimidin-3-yl)-1H-pyrazolo[4,3-b]pyridine-3-carboxylate]
Biochemical Potency JAK 1 (pIC50) [2]: 8.1

CN(C)C(=O)Cc1nn(-c2cc(Cl)ccc2OC(F)F)c2cc(-c3cnn4cccnc34)cnc12 [Example 4a, 2-(1-(5-chloro-2-(difluoromethoxy)phenyl)-6-(pyrazolo[1,5-a]pyrimidin-3-yl)-1H-pyrazolo[4,3-b]pyridin-3-yl)-N,N-dimethylacetamide]
IC50 [1]: 316 nM | Biochemical Potency JAK 1 (pIC50) [2]: 7.8

Cc1nn(-c2cc(Cl)ccc2OC(F)F)c2cc(-c3cnc4cccnn34)ncc12 [Example 6a, 1-(5-chloro-2-(difluoromethoxy)phenyl)-6-(imidazo[1,2-b]pyridazin-3-yl)-3-methyl-1H-pyrazolo[4,3-c]pyridine]
Biochemical Potency JAK 1 (pIC50) [2]: 8.4

COc1cc(NS(C)(=O)=O)ccc1-n1nc(N)c2cnc(-c3cnn4cccnc34)cc21 [Example 79, N-(4-(3-amino-6-(pyrazolo[1,5-a]pyrimidin-3-yl)-1H-pyrazolo[4,3-c]pyridin-1-yl)-3-methoxyphenyl)methanesulfonamide]
IC50 [3]: ≤ 5.01 nM | IC50 [4]: ≤ 5.01 nM | IC50 [5]: ≤ 5.01 nM | IC50 [6]: 5.01 to 50.1 nM

CNCC(=O)Nc1nn(-c2ccc(NS(C)(=O)=O)cc2OC)c2cc(-c3cnn4cccnc34)ncc12 [Example 80, N-(1-(2-methoxy-4-(methylsulfonamido)phenyl)-6-(pyrazolo[1,5-a]pyrimidin-3-yl)-1H-pyrazolo[4,3-c]pyridin-3-yl)-2-(methylamino)acetamide]
IC50 [3]: ≤ 5.01 nM | IC50 [4]: ≤ 5.01 nM | IC50 [5]: ≤ 5.01 nM | IC50 [6]: 5.01 to 50.1 nM

COc1cc(NS(C)(=O)=O)ccc1-n1nc(NC(=O)CN2CCN(C)CC2)c2cnc(-c3cnn4cccnc34)cc21 [Example 81, N-(1-(2-methoxy-4-(methylsulfonamido)phenyl)-6-(pyrazolo[1,5-a]pyrimidin-3-yl)-1H-pyrazolo[4,3-c]pyridin-3-yl)-2-(4-methylpiperazin-1-yl)acetamide]
IC50 [3]: ≤ 5.01 nM | IC50 [4]: ≤ 5.01 nM | IC50 [5]: ≤ 5.01 nM | IC50 [6]: 5.01 to 50.1 nM

CCCS(=O)(=O)Nc1ccc(-n2nc(NC(=O)CCN3CCN(C)CC3)c3cnc(-c4cnn5cccnc45)cc32)c(OC)c1 [Example 82, N-(1-(2-methoxy-4-(propylsulfonamido)phenyl)-6-(pyrazolo[1,5-a]pyrimidin-3-yl)-1H-pyrazolo[4,3-c]pyridin-3-yl)-3-(4-methylpiperazin-1-yl)propanamide]
IC50 [3]: 5.01 to 50.1 nM | IC50 [4]: 5.01 to 50.1 nM | IC50 [5]: 5.01 to 50.1 nM | IC50 [6]: 5.01 to 50.1 nM

CCCS(=O)(=O)Nc1ccc(-n2nc(CNC)c3cnc(-c4cnn5cccnc45)cc32)c(OC)c1 [Example 83, N-(3-methoxy-4-(3-((methylamino)methyl)-6-(pyrazolo[1,5-a]pyrimidin-3-yl)-1H-pyrazolo[4,3-c]pyridin-1-yl)phenyl)propane-1-sulfonamide]
IC50 [3]: ≤ 5.01 nM | IC50 [4]: ≤ 5.01 nM | IC50 [5]: ≤ 5.01 nM | IC50 [6]: 5.01 to 50.1 nM

COc1cc(NS(=O)(=O)C2CC2)ccc1-n1nc(CC#N)c2cnc(-c3cnn4cccnc34)cc21 [Example 84, N-(4-(3-(cyanomethyl)-6-(pyrazolo[1,5-a]pyrimidin-3-yl)-1H-pyrazolo[4,3-c]pyridin-1-yl)-3-methoxyphenyl)cyclopropanesulfonamide]
IC50 [3]: ≤ 5.01 nM | IC50 [4]: ≤ 5.01 nM | IC50 [5]: 5.01 to 50.1 nM | IC50 [6]: 5.01 to 50.1 nM

COc1cc(NS(C)(=O)=O)ccc1-n1nc(C)c2cnc(Nc3ncc[nH]c3=O)cc21 [Example 85, N-(3-methoxy-4-(3-methyl-6-((3-oxo-3,4-dihydropyrazin-2-yl)amino)-1H-pyrazolo[4,3-c]pyridin-1-yl)phenyl)methanesulfonamide]
IC50 [3]: ≤ 5.01 nM | IC50 [4]: ≤ 5.01 nM | IC50 [5]: ≤ 5.01 nM | IC50 [6]: ≤ 5.01 nM

COc1cc(NS(=O)(=O)c2cnn(C)c2)ccc1-n1nc(C)c2cnc(Nc3ncc[nH]c3=O)cc21 [Example 86, N-(3-methoxy-4-(3-methyl-6-((3-oxo-3,4-dihydropyrazin-2-yl)amino)-1H-pyrazolo[4,3-c]pyridin-1-yl)phenyl)-1-methyl-1H-pyrazole-4-sulfonamide]
IC50 [3]: 5.01 to 50.1 nM | IC50 [4]: ≤ 5.01 nM | IC50 [5]: ≤ 5.01 nM | IC50 [6]: 5.01 to 50.1 nM

COc1cc(NS(C)(=O)=O)ccc1-n1nc(NCCN2CCOCC2)c2cnc(Nc3ncc[nH]c3=O)cc21 [Example 87, N-(3-methoxy-4-(3-((2-morpholinoethyl)amino)-6-((3-oxo-3,4-dihydropyrazin-2-yl)amino)-1H-pyrazolo[4,3-c]pyridin-1-yl)phenyl)methanesulfonamide]
IC50 [3]: ≤ 5.01 nM | IC50 [4]: ≤ 5.01 nM | IC50 [5]: ≤ 5.01 nM | IC50 [6]: ≤ 5.01 nM

CCCS(=O)(=O)Nc1ccc(-n2nc(NCCN3CCCCC3)c3cnc(Nc4ncc[nH]c4=O)cc32)c(OC)c1 [Example 88, N-(3-methoxy-4-(6-((3-oxo-3,4-dihydropyrazin-2-yl)amino)-3-((2-(piperidin-1-yl)ethyl)amino)-1H-pyrazolo[4,3-c]pyridin-1-yl)phenyl)propane-1-sulfonamide]
IC50 [3]: ≤ 5.01 nM | IC50 [4]: ≤ 5.01 nM | IC50 [5]: ≤ 5.01 nM | IC50 [6]: 5.01 to 50.1 nM

CCCS(=O)(=O)Nc1ccc(-n2nc(NCCN3CCOCC3)c3cnc(Nc4ncc[nH]c4=O)cc32)c(OC(F)F)c1 [Example 89, N-(3-(difluoromethoxy)-4-(3-((2-morpholinoethyl)amino)-6-((3-oxo-3,4-dihydropyrazin-2-yl)amino)-1H-pyrazolo[4,3-c]pyridin-1-yl)phenyl)propane-1-sulfonamide]
IC50 [3]: ≤ 5.01 nM | IC50 [4]: ≤ 5.01 nM | IC50 [5]: ≤ 5.01 nM | IC50 [6]: 5.01 to 50.1 nM

COc1cc(NS(C)(=O)=O)ccc1-n1nc(NCCN2C3CCC2COC3)c2cnc(Nc3ncc[nH]c3=O)cc21 [Example 90, N-(4-(3-((2-(3-oxa-8-azabicyclo[3.2.1]octan-8-yl)ethyl)amino)-6-((3-oxo-3,4-dihydropyrazin-2-yl)amino)-1H-pyrazolo[4,3-c]pyridin-1-yl)-3-methoxyphenyl)methanesulfonamide]
IC50 [3]: ≤ 5.01 nM | IC50 [4]: ≤ 5.01 nM | IC50 [5]: ≤ 5.01 nM | IC50 [6]: ≤ 5.01 nM

CCCS(=O)(=O)Nc1ccc(-n2nc(NC)c3cnc(Nc4ncc[nH]c4=O)cc32)c(OC)c1 [Example 91, N-(3-methoxy-4-(3-(methylamino)-6-((3-oxo-3,4-dihydropyrazin-2-yl)amino)-1H-pyrazolo[4,3-c]pyridin-1-yl)phenyl)propane-1-sulfonamide]
IC50 [3]: ≤ 5.01 nM | IC50 [4]: ≤ 5.01 nM | IC50 [5]: ≤ 5.01 nM | IC50 [6]: 5.01 to 50.1 nM

COc1cc(CNS(C)(=O)=O)ccc1-n1nc(NCCN2CCOCC2)c2cnc(Nc3ncc[nH]c3=O)cc21 [Example 92, N-(3-methoxy-4-(3-((2-morpholinoethyl)amino)-6-((3-oxo-3,4-dihydropyrazin-2-yl)amino)-1H-pyrazolo[4,3-c]pyridin-1-yl)benzyl)methanesulfonamide]
IC50 [3]: ≤ 5.01 nM | IC50 [4]: ≤ 5.01 nM | IC50 [5]: ≤ 5.01 nM | IC50 [6]: ≤ 5.01 nM
